This assay has as its target T1, PAR-1 receptor (Homo sapiens, UniProt P25116).
T1 construct: endogenous in cells; host or cells: HEK 293
T1 sequence (P25116 22-425): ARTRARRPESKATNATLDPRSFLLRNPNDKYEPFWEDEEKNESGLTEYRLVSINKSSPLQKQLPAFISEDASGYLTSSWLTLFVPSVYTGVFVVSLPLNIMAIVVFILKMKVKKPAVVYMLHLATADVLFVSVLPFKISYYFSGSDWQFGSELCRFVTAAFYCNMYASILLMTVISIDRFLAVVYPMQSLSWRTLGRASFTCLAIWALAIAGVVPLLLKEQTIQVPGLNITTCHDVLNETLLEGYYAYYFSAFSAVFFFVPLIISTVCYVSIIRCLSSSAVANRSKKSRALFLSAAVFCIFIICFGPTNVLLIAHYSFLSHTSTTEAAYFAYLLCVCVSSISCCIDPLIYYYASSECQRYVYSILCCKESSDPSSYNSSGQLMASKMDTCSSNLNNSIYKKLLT
Put plainly: PAR-1 FLIPR Assay. In kind it is cell-based. Particulars: HEK 293 cells, FLIPR calcium-5 dye; inhibition of signal from PAR1 selective receptor-activating peptide at 80% activation concentration (1.4-2.0 uM); compound incubated 30 minutes at 25 degrees. The method, then:
The following assay was used to determine the ability of the inventive compounds to inhibit the PAR-1 receptor.
HEK 293 Cells are grown in media containing DMEM, 10% FBS pen/strep/L-Glutamine and non-essential amino acids. The cells are plated in 384-well PDL coated plates at 12000 cells/well and incubated overnight at 37° C./5% CO2. Media is then removed from the cells, which are then incubated with buffer (Hank's containing HEPES and Chaps) containing FLIPR calcium-5 dye, made with buffer containing probenecid, for 60 minutes at 37° C. Varying concentrations of compound in a final concentration of 5% DMSO are then added to the cells and incubated at 25 degrees for 30 minutes. The plates are then added to a FLIPR Tetra cellular screening system and the device adds a concentration of a PAR1 selective receptor-activating peptide with the sequence Ala-parafluoroPhe-Arg-Cha-Cit-Tyr-NH2 (SEQ ID NO: 3) (prepared in water) at a concentration equal to the effective concentration that achieves 80% activation of signaling on the day of the experiment. The range is from 1.4-2.0 uM peptide. The FLIPR reads at an excitation wavelength of 480 nm and an emission wavelength of 535 nm, and performs 60 scans over a 1-2 min reading time. The data are analyzed by taking the peak signal over a portion of the range of the 60 scans and dividing this signal by the minimum signal for that same range. The data are expressed as percent inhibition of the maximum divided by the minimum signal achieved at 80% activation produced by the PAR1 activating peptide on the test day.

The term IC50 denotes the concentration needed to halve the response being measured. For the compound `Cc1nc(/C=C/[C@@H]2[C@H]3[C@@H](CC(F)(F)[C@H]2C)S(=O)(=O)N[C@@H]3C)ccc1-c1ccccc1C#N` [Example 6, (3R,3aR,4S,5S,7aR)-4-((E)-2-(5-(2-cyanophenyl)pyridin-2-yl)-6-methylvinyl)-6,6-difluoro-3,5-dimethyloctahydrobenzo[d]isothiazole-1,1-dioxide], the 50% inhibitory concentration (IC50) was found to be 66.7 nM.

On to `COc1ncccc1-c1ccc(/C=C/[C@@H]2[C@@H]3[C@@H](C)NS(=O)(=O)[C@]3(CC(N)=O)CC(F)(F)[C@H]2C)nc1` [Example 18, 2-((3R,3aR,4S,5S,7aR)-6,6-difluoro-4-((E)-2-(2′-methoxy-[3,3′-bipyridin]-6-yl)vinyl)-3,5-dimethyl-1,1-dioxidooctahydrobenzo[d]isothiazol-7a-yl)acetamide], for which the IC50 worked out at 36.8 nM.

Regarding `CC[C@@H]1CC[C@@H]2[C@H]([C@H]1/C=C/c1ccc(-c3ccccc3C#N)cn1)[C@@H](C)N(CCO)S2(=O)=O` [Example 29, 2-(6-((E)-2-((3R,3aR,4R,5R,7aR)-5-ethyl-2-(2-hydroxyethyl)-3-methyl-1,1-dioxidooctahydrobenzo[d]isothiazol-4-yl)vinyl)pyridin-3-yl)benzonitrile], the half-inhibitory concentration (IC50) turned out to be 540 nM.

On to `CC[C@@H]1CC[C@@H]2[C@H]([C@H]1/C=C/c1ccc(-c3ccccc3C#N)cn1)[C@@H](C)N(C)S2(=O)=O` [Example 27, 2-(6-((E)-2-((3R,3aR,4R,5R,7aR)-5-ethyl-2,3-dimethyl-1,1-dioxidooctahydrobenzo[d]isothiazol-4-yl)vinyl)pyridin-3-yl)benzonitrile], for which the IC50 was 13 nM.

`COc1ncccc1-c1ccc(/C=C/[C@@H]2[C@@H]3[C@@H](C)N(C(=O)OC(C)(C)C)S(=O)(=O)[C@@]3(CC(N)=O)CC(F)(F)[C@H]2C)nc1` [Example 19, (3R,3aR,4S,5S,7aS)-tert-butyl 7a-(2-amino-2-oxoethyl)-6,6-difluoro-4-((E)-2-(2′-methoxy-[3,3′-bipyridin]-6-yl)vinyl)-3,5-dimethylhexahydrobenzo[d]isothiazole-2(3H)-carboxylate 1,1-dioxide]: the IC50 was determined as 54 nM.

As for `CC[C@@H]1CC[C@@H]2[C@H]([C@H]1/C=C/c1ccc(-c3ccccc3C#N)cn1)[C@@H](C)NS2(=O)=O` [Example 10, 2-(6-((E)-2-((3R,3aR,4R,5R,7aR)-5-ethyl-3-methyl-1,1-dioxidooctahydrobenzo[d]isothiazol-4-yl)vinyl)pyridin-3-yl)benzonitrile], the IC50 worked out at 0.97 nM.

For the compound `C[C@H]1NS(=O)(=O)[C@@H]2CC(F)(F)[C@@H](C)[C@H](/C=C/c3ccc(-c4ccccc4C#N)cn3)[C@@H]21` [Example 3, (3R,3aR,4S,5S,7aR)-4-((E)-2-(5-(2-cyanophenyl)pyridin-2-yl)vinyl)-6,6-difluoro-3,5-dimethyloctahydrobenzo[d]isothiazole-1,1-dioxide], the concentration for half-maximal inhibition (IC50) amounted to 11.9 nM.

In the case of `C[C@H]1NS(=O)(=O)[C@]2(CC(N)=O)CC(F)(F)[C@@H](C)[C@H](/C=C/c3ccc(-c4ccccc4C#N)cn3)[C@H]12` [Example 23, 2-((3R,3aR,4S,5S,7aR)-4-((E)-2-(5-(2-cyanophenyl)pyridin-2-yl)vinyl)-6,6-difluoro-3,5-dimethyl-1,1-dioxidooctahydrobenzo[d]isothiazol-7a-yl)acetamide], the IC50 came to 3 nM.

As to `COc1ncccc1-c1ccc(/C=C/[C@@H]2[C@@H]3[C@@H](C)NS(=O)(=O)[C@]3(C)CC(F)(F)[C@H]2C)nc1` [Example 12, (3R,3aR,4S,5S,7aR)-6,6-difluoro-4-((E)-2-(2′-methoxy-[3,3′-bipyridin]-6-yl)vinyl)-3,5,7a-trimethyloctahydrobenzo[d]isothiazole 1,1-dioxide], the IC50 worked out at 4.2 nM.

For the origin of these results see patent US20170240539A1, “Preparation and Use of Cyclic Sulfonamide Derivatives as PAR-1 Receptor Antagonists” (MERCK SHARP & DOHME CORP., priority 2014, published 2017).
